Here are results for one molecule from paper PMC7754465, “Multiparameter Kinetic Analysis for Covalent Fragment Optimization by Using Quantitative Irreversible Tethering (qIT)” (Chembiochem, 2020).

The target of the test is His-Cdk2(F80C,C177A,D145N) (Homo sapiens, UniProt P24941, C177A/D145N/F80C). Kind of test: qIT assay with His-Cdk2(F80C,C177A,D145N). The format is binding. The following applies: acrylamide 69 0.5 mM, thiol 5 µM. As to the method:
site that is normally occupied by the adenosine core of ATP. Indeed, the methyl ester engages in a hydrogen-bonding interaction with the backbone amide of Leu83, mimicking the pyrimidine pharmacophore of ATP, while the acrylamide carbonyl itself is hydrogen bonded to the ε-amine of Lys32.
Next the 57-Cdk2(F80C,C177A) conjugate was prepared and crystallised by heterogeneous microseeding in an analogous manner. This complex diffracted to 2.0 GS H Å […]
Although acrylamide Cdk2(F80C,C177A,D145N) 57 could be O […]
modelled into the electron density map with a cov1.25 alent bond to Cys80, the ligand-binding mode was less clearly defined (Figure 72b). It is postulated that either the ligand binds in N […]
multiple unresolved modes or that the protein was not fully modified such that the ligand 69 […]
clin A2 to form active holoenzymes. The holoenzymes were incubated with peptide substrate, ATP, NADH, PEP, LD and PK Tim e ( h) ! at 37 °C and the absorbance measured over time in clear 384-well plates. Kinase activity is determined from the gradient of Figure the absorbance over time (between 100084. Fluorescence data (normalised against DMSO –3000 s) and normalised relative to pCdk2(WT) = 100% and cyclin A2 only = 0% (n = control) from qIT assay for acrylamide […]
glutathione (5 µM). Vertical error bars represent the standard deviation of fluorogenic thiol quantifications, performed in duplicate. […]

Consider `C=CC(=O)N1CCN(CC)c2ccccc21` [compound 6], for which the “k, thiol Cdk2(F80C,C177A,D145N)” value stood at 0.23 h–1.
